The values that follow come from BindingDB's records for doi:10.7270/Q2Q52N1X (Vanderbilt Screening Center for GPCRs, Ion Channels and …, 2009).

As a reminder, the EC50 is the concentration at which the effect is half-maximal.

Structures are written as SMILES.

The first assay concerns the target T1, Solute carrier family 12 member 5 (Homo sapiens, UniProt Q9H2X9).
T1 sequence (Q9H2X9 whole entry): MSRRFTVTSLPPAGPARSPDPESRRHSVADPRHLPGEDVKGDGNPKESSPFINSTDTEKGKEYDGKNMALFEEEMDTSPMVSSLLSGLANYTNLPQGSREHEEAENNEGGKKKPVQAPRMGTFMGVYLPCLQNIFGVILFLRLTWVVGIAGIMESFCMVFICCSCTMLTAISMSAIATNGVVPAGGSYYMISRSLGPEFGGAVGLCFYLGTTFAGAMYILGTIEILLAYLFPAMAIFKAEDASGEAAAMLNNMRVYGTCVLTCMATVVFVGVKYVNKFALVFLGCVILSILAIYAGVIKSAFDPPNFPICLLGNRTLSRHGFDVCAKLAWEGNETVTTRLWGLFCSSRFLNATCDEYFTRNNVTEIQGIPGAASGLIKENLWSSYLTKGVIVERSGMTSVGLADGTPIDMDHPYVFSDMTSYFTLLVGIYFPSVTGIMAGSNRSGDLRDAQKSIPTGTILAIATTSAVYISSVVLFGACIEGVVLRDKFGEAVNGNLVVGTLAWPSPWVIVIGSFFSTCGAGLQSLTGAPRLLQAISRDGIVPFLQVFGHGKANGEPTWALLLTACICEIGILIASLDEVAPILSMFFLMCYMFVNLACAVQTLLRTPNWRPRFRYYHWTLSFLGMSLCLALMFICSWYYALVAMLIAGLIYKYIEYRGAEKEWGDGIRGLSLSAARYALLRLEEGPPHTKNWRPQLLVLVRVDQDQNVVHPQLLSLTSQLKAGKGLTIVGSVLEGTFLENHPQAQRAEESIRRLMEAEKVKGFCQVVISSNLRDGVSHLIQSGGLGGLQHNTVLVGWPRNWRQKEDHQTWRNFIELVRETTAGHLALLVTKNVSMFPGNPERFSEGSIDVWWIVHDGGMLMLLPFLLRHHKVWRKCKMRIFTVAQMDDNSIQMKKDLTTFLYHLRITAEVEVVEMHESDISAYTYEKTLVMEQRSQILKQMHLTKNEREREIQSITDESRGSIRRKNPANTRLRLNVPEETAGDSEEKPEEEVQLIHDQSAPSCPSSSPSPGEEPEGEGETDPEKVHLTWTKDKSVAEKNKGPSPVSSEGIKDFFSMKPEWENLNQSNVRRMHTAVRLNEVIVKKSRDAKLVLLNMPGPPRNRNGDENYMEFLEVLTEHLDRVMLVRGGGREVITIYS
Description: KCC2 modulator potency by thallium flux, dose response, cell-based, HEK293 KCC2, FluoZin-2 fluorescence (AID 1736).
Conditions: not given
For `O=C(NC1CCCC1)C(c1ccncc1)N(Cc1ccco1)C(=O)c1ccc(-c2ccccc2)[nH]1` (stereo not drawn) [MLS000718066], the EC50 came out at 6.36 µM. Regarding `O=C(CSc1ccc(-c2ccccc2)nn1)Nc1ccc2c(c1)OCCO2` [MLS000724887], the EC50 came out at 31 µM. The same measure, in the same setting: to `CC(=O)NCC1CCCN(c2nc3nonc3nc2N(C)Cc2ccccc2)C1` (stereo not drawn) [MLS000731683] belongs 1.69 µM. Still for that read-out and setting: in the case of `CCc1cc(C(=O)N2CCCC(CNC(=O)c3ccc(-c4ccccc4)cc3)C2)no1` (stereo not drawn) [MLS000731765] it was 4.25 µM; in that of `CC(=O)NCCC(=O)N1CCCC(CNC(=O)c2ccc(-c3ccccc3)cc2)C1` (stereo not drawn) [MLS000733794], 8.13 µM. Still for that read-out and setting: in the case of `CSCCC(=O)N1CCCC(CNC(=O)c2ccc(-c3ccccc3)cc2)C1` (stereo not drawn) [MLS000733867] it was 5.16 µM; in that of `Cc1ccc(NC(=O)CCCSc2ccccc2)cc1S(=O)(=O)N1CCOCC1` [MLS000761060], 408 µM; in that of `O=C(NNc1nc(-c2ccc(F)cc2)cs1)c1ccccc1` [MLS000763429], 0.806 µM.

The compound `COc1ccccc1NC(=S)NNC1=c2cc(Br)ccc2=NC1=O` [MLS000778253] displayed an EC50 of 0.363 µM. Still for that read-out and setting: in the case of `O=C(NNc1nc(-c2ccccc2)cs1)c1cccs1` [MLS000858987] it was 0.252 µM; in that of `CCC(CC)NC(=O)CSc1nnc(-c2c[nH]c3ccccc23)o1` [MLS001017505], 334 µM; in that of `COc1ccc(N(CC(=O)Nc2cccc(C)c2C)S(=O)(=O)c2c(C)n[nH]c2C)cc1` [N-(2,3-dimethylphenyl)-2-[(3,5-dimethyl-1H-pyrazol-4-yl)sulfonyl-(4-methoxyphenyl)amino]ethanamide], 15.7 µM. In turn, `Cc1csc(NC(=O)CSc2ccc(-c3ccccc3)nn2)n1` [N-(4-methyl-1,3-thiazol-2-yl)-2-(6-phenylpyridazin-3-yl)sulfanyl-ethanamide] registered an EC50 of 0.493 µM.

`CC(=NNC(=O)c1ccc(Cl)c(Cl)c1)c1ccc(Br)s1` [N-[1-(5-bromo-2-thiophenyl)ethylideneamino]-3,4-dichlorobenzamide] yielded an EC50 of 0.48 µM. Still for that read-out and setting: in the case of `O=C(NCCc1c[nH]c2ccccc12)c1cc(S(=O)(=O)N2CCCCC2)ccc1N1CCOCC1` [N-[2-(1H-indol-3-yl)ethyl]-2-morpholin-4-yl-5-piperidin-1-ylsulfonylbenzamide] it was 20.1 µM; in that of `CC(C)(C)NC(=O)C(c1ccncc1)N(Cc1ccco1)C(=O)c1ccc(-c2ccccc2)[nH]1` (stereo not drawn) [N-[2-(tert-butylamino)-2-oxo-1-pyridin-4-ylethyl]-N-(furan-2-ylmethyl)-5-phenyl-1H-pyrrole-2-carboxamide], 26.6 µM. For the compound `CC(C)(C)NC(=O)C(c1cccs1)N(CC1CCCO1)C(=O)c1ccc(-c2ccccc2)[nH]1` (stereo not drawn) [N-[2-(tert-butylamino)-2-oxo-1-thiophen-2-ylethyl]-N-(2-oxolanylmethyl)-5-phenyl-1H-pyrrole-2-carboxamide], the EC50 worked out at 1.93 µM. Regarding `O=C(NN1C(=O)/C(=C/c2nc3ccccc3[nH]2)SC1=S)c1ccccc1Cl` [N-{5-[1-(1H-Benzoimidazol-2-yl)-meth-(Z)-ylidene]-4-oxo-2-thioxo-thiazolidin-3-yl}-2-chloro-benzamide], the EC50 was 0.153 µM. The same measure, in the same setting: to `Cc1ccc2[nH]c(=O)c(CN(CCc3ccccc3)Cc3nnnn3CC3CCCO3)cc2c1` (stereo not drawn) [SMR000003177] belongs 244 µM; to `O=C(CSc1nnc(-c2c[nH]c3ccccc23)o1)N1CCCCC1` [SMR000003748], 3.79 µM. On the same count and under the same terms, in the case of `c1ccc(-c2nnc(Sc3ncnc4c3cnn4-c3ccccc3)[nH]2)cc1` [SMR000019566] it was 12.3 µM; in that of `CCOC(=O)c1sc(Nc2nc3c(OC)cccc3s2)nc1C` [SMR000027213], 155 µM; in that of `CC(NNC(=O)c1ccc(Br)cc1)=C1C(=O)c2ccccc2C1=O` [SMR000116009], 1.56 µM. Same read-out and setting: in the case of `O=C(CSc1nccc(=O)[nH]1)N1CCc2ccccc2C1` [SMR000124078] it was 9.12 µM; in that of `CC(C)NC(=S)NNC1=c2cc(C(C)C)ccc2=NC1=O` [SMR000242097], 145 µM. In turn, `CN1/C(=C\C(=S)NC(=O)c2cccc(Br)c2)C(C)(C)c2ccccc21` [SMR000254682] yielded an EC50 of 3.68 µM. On the same count and under the same terms, to `Cc1nc(SCc2ccc(F)cc2)c([N+](=O)[O-])[nH]1` [SMR000271028] belongs 878 µM.

`COC(=O)Cc1[nH]n(-c2nc3ccccc3s2)c(=O)c1C(C)=Nc1ccc(Cl)cc1` [methyl 2-[(4E)-1-(1,3-benzothiazol-2-yl)-4-[1-[(4-chlorophenyl)amino]ethylidene]-5-oxidanylidene-pyrazol-3-yl]ethanoate]: the response was half-maximal at 77.3 µM (EC50).

Staying with this assay, now noted: inactive by the depositor's call.
The compound `CN1C(C(=O)NCc2ccccc2)CC2Cn3c(nc4cc(Cl)c(Cl)cc43)C21` (stereo not drawn) [MLS000877509] returned an EC50 of 64 µM. `COc1ccc(N(CC(=O)Nc2ccc(C)c(C)c2)S(=O)(=O)c2c(C)n[nH]c2C)cc1` [SMR000027403]: the EC50 came to 35.1 µM.

In turn, `CCOC(=O)c1c(C)[nH]c(C)c1C(=O)CSc1nc(N)cc(N)n1` [SMR000063952] came in with an EC50 of 1.88 µM. On the same count and under the same terms, in the case of `COc1ccc(CN(C(=O)c2ccc(-c3ccccc3)[nH]2)C(C(=O)NC(C)(C)C)c2ccncc2)cc1` (stereo not drawn) [SMR000279859] it was 34.4 µM; in that of `CC1=NN(C(=O)c2ccc(Br)cc2)C(O)(C(F)(F)OC(F)(F)F)C1` (stereo not drawn) [[5-[bis(fluoranyl)-(trifluoromethyloxy)methyl]-3-methyl-5-oxidanyl-4H-pyrazol-1-yl]-(4-bromophenyl)methanone], 6.18 µM.
